Laboratory results taken from the OligoGym collection.
HELM strings list units from the 5' end as sugar, base in round brackets, then linkage (d deoxyribose, r ribose, m 2'-O-methyl, p phosphodiester). Strings are as the collection lists them; they lack the last nucleoside at the 3' end of the tested compound. [moe] = 2'-O-(2-methoxyethyl) (MOE); [sp] = phosphorothioate linkage; [m5C] = 5-methylcytosine

Biological target: SMN2
Test: mouse, dose not given
Conditions: ASO

Substance | 3 h FOB score
RNA1{[moe](A)[sp].[moe]([m5C])[sp].[moe](T)[sp].[moe](T)[sp].[moe](T)[sp].[moe]([m5C])p.[moe](A)p.[moe](T)p.[moe](A)p.[moe](A)p.[moe](T)p.[moe](G)p.[moe]([m5C])[sp].[moe](T)[sp].[moe](G)[sp].[moe](G)}$$$$ (last 3' nucleoside missing) | 0 score 0-7
RNA1{[moe](A)[sp].[moe]([m5C])[sp].[moe](T)[sp].[moe](T)[sp].[moe](T)p.[moe]([m5C])p.[moe](A)p.[moe](T)p.[moe](A)[sp].[moe](A)[sp].[moe](T)[sp].[moe](G)[sp].[moe]([m5C])[sp].[moe](T)[sp].[moe](G)[sp].[moe](G)}$$$$ (last 3' nucleoside missing) | 0 score 0-7
RNA1{[moe](A)[sp].[moe]([m5C])[sp].[moe](T)p.[moe](T)[sp].[moe](T)[sp].[moe]([m5C])[sp].[moe](A)[sp].[moe](T)[sp].[moe](A)[sp].[moe](A)[sp].[moe](T)[sp].[moe](G)[sp].[moe]([m5C])[sp].[moe](T)p.[moe](G)[sp].[moe](G)}$$$$ (last 3' nucleoside missing) | 0 score 0-7
RNA1{[moe](A)[sp].[moe]([m5C])[sp].[moe](T)p.[moe](T)[sp].[moe](T)[sp].[moe]([m5C])[sp].[moe](A)[sp].[moe](T)[sp].[moe](A)p.[moe](A)[sp].[moe](T)[sp].[moe](G)[sp].[moe]([m5C])[sp].[moe](T)p.[moe](G)[sp].[moe](G)}$$$$ (last 3' nucleoside missing) | 0 score 0-7
RNA1{[moe](A)[sp].[moe]([m5C])[sp].[moe](T)p.[moe](T)[sp].[moe](T)[sp].[moe]([m5C])[sp].[moe](A)p.[moe](T)[sp].[moe](A)[sp].[moe](A)[sp].[moe](T)p.[moe](G)[sp].[moe]([m5C])[sp].[moe](T)p.[moe](G)[sp].[moe](G)}$$$$ (last 3' nucleoside missing) | 0 score 0-7
RNA1{[moe](A)[sp].[moe]([m5C])[sp].[moe](T)p.[moe](T)[sp].[moe](T)[sp].[moe]([m5C])p.[moe](A)[sp].[moe](T)[sp].[moe](A)p.[moe](A)[sp].[moe](T)[sp].[moe](G)p.[moe]([m5C])[sp].[moe](T)p.[moe](G)[sp].[moe](G)}$$$$ (last 3' nucleoside missing) | 0 score 0-7
RNA1{[moe](A)[sp].[moe]([m5C])[sp].[moe](T)p.[moe](T)[sp].[moe](T)p.[moe]([m5C])[sp].[moe](A)p.[moe](T)[sp].[moe](A)p.[moe](A)[sp].[moe](T)p.[moe](G)[sp].[moe]([m5C])p.[moe](T)[sp].[moe](G)[sp].[moe](G)}$$$$ (last 3' nucleoside missing) | 0 score 0-7
RNA1{[moe](A)[sp].[moe]([m5C])[sp].[moe](T)p.[moe](T)p.[moe](T)p.[moe]([m5C])p.[moe](A)[sp].[moe](T)[sp].[moe](A)[sp].[moe](A)[sp].[moe](T)[sp].[moe](G)[sp].[moe]([m5C])[sp].[moe](T)[sp].[moe](G)[sp].[moe](G)}$$$$ (last 3' nucleoside missing) | 0 score 0-7
RNA1{[moe](A)[sp].[moe]([m5C])p.[moe](T)p.[moe](T)[sp].[moe](T)[sp].[moe]([m5C])[sp].[moe](A)[sp].[moe](T)[sp].[moe](A)[sp].[moe](A)[sp].[moe](T)[sp].[moe](G)[sp].[moe]([m5C])p.[moe](T)p.[moe](G)[sp].[moe](G)}$$$$ (last 3' nucleoside missing) | 0 score 0-7
RNA1{[moe](A)[sp].[moe]([m5C])p.[moe](T)p.[moe](T)p.[moe](T)[sp].[moe]([m5C])[sp].[moe](A)[sp].[moe](T)[sp].[moe](A)[sp].[moe](A)[sp].[moe](T)[sp].[moe](G)[sp].[moe]([m5C])p.[moe](T)p.[moe](G)[sp].[moe](G)}$$$$ (last 3' nucleoside missing) | 0 score 0-7
RNA1{[moe](A)[sp].[moe]([m5C])p.[moe](T)p.[moe](T)p.[moe](T)[sp].[moe]([m5C])[sp].[moe](A)[sp].[moe](T)[sp].[moe](A)[sp].[moe](A)[sp].[moe](T)[sp].[moe](G)p.[moe]([m5C])p.[moe](T)p.[moe](G)[sp].[moe](G)}$$$$ (last 3' nucleoside missing) | 0 score 0-7
RNA1{[moe](A)[sp].[moe]([m5C])p.[moe](T)p.[moe](T)p.[moe](T)p.[moe]([m5C])[sp].[moe](A)[sp].[moe](T)[sp].[moe](A)[sp].[moe](A)[sp].[moe](T)[sp].[moe](G)p.[moe]([m5C])p.[moe](T)p.[moe](G)[sp].[moe](G)}$$$$ (last 3' nucleoside missing) | 0 score 0-7
RNA1{[moe](A)p.[moe](T)[sp].[moe]([m5C])[sp].[moe](A)[sp].[moe]([m5C])[sp].[moe](T)[sp].[moe](T)[sp].[moe](T)[sp].[moe]([m5C])[sp].[moe](A)[sp].[moe](T)[sp].[moe](A)[sp].[moe](A)[sp].[moe](T)[sp].[moe](G)[sp].[moe]([m5C])[sp].[moe](T)[sp].[moe](G)}$$$$ (last 3' nucleoside missing) | 4 score 0-7
RNA1{[moe](G)[sp].[moe](A)[sp].[moe](T)[sp].[moe](T)[sp].[moe]([m5C])[sp].[moe](A)[sp].[moe]([m5C])[sp].[moe](T)[sp].[moe](T)[sp].[moe](T)[sp].[moe]([m5C])[sp].[moe](A)[sp].[moe](T)[sp].[moe](A)[sp].[moe](A)[sp].[moe](T)[sp].[moe](G)[sp].[moe]([m5C])[sp].[moe](T)}$$$$ (last 3' nucleoside missing) | 4 score 0-7
RNA1{[moe](G)[sp].[moe](A)[sp].[moe](T)[sp].[moe](T)[sp].[moe]([m5C])[sp].[moe](A)[sp].[moe]([m5C])[sp].[moe](T)[sp].[moe](T)[sp].[moe](T)[sp].[moe]([m5C])[sp].[moe](A)[sp].[moe](T)[sp].[moe](A)[sp].[moe](A)[sp].[moe](T)[sp].[moe](G)[sp].[moe]([m5C])}$$$$ (last 3' nucleoside missing) | 2 score 0-7
RNA1{[moe](T)[sp].[moe](T)[sp].[moe]([m5C])[sp].[moe](A)[sp].[moe]([m5C])[sp].[moe](T)[sp].[moe](T)[sp].[moe](T)[sp].[moe]([m5C])[sp].[moe](A)[sp].[moe](T)[sp].[moe](A)[sp].[moe](A)[sp].[moe](T)[sp].[moe](G)[sp].[moe]([m5C])[sp].[moe](T)[sp].[moe](G)}$$$$ (last 3' nucleoside missing) | 3.75 score 0-7
RNA1{[moe](T)[sp].[moe](T)[sp].[moe]([m5C])[sp].[moe](A)[sp].[moe]([m5C])[sp].[moe](T)[sp].[moe](T)[sp].[moe](T)[sp].[moe]([m5C])[sp].[moe](A)[sp].[moe](T)[sp].[moe](A)[sp].[moe](A)[sp].[moe](T)[sp].[moe](G)[sp].[moe]([m5C])p.[moe](T)[sp].[moe](G)}$$$$ (last 3' nucleoside missing) | 1.75 score 0-7
RNA1{[moe](T)[sp].[moe](T)[sp].[moe]([m5C])[sp].[moe](A)[sp].[moe]([m5C])[sp].[moe](T)[sp].[moe](T)[sp].[moe](T)[sp].[moe]([m5C])[sp].[moe](A)[sp].[moe](T)[sp].[moe](A)[sp].[moe](A)[sp].[moe](T)p.[moe](G)[sp].[moe]([m5C])p.[moe](T)[sp].[moe](G)}$$$$ (last 3' nucleoside missing) | 1 score 0-7
RNA1{[moe](T)[sp].[moe](T)[sp].[moe]([m5C])[sp].[moe](A)[sp].[moe]([m5C])[sp].[moe](T)[sp].[moe](T)[sp].[moe](T)[sp].[moe]([m5C])p.[moe](A)[sp].[moe](T)[sp].[moe](A)[sp].[moe](A)[sp].[moe](T)[sp].[moe](G)[sp].[moe]([m5C])[sp].[moe](T)[sp].[moe](G)}$$$$ (last 3' nucleoside missing) | 3.75 score 0-7
RNA1{[moe](T)[sp].[moe](T)[sp].[moe]([m5C])[sp].[moe](A)[sp].[moe]([m5C])[sp].[moe](T)[sp].[moe](T)[sp].[moe](T)[sp].[moe]([m5C])p.[moe](A)[sp].[moe](T)[sp].[moe](A)[sp].[moe](A)[sp].[moe](T)[sp].[moe](G)[sp].[moe]([m5C])p.[moe](T)[sp].[moe](G)}$$$$ (last 3' nucleoside missing) | 2 score 0-7
RNA1{[moe](T)[sp].[moe](T)p.[moe]([m5C])[sp].[moe](A)[sp].[moe]([m5C])[sp].[moe](T)[sp].[moe](T)[sp].[moe](T)[sp].[moe]([m5C])[sp].[moe](A)[sp].[moe](T)[sp].[moe](A)[sp].[moe](A)[sp].[moe](T)[sp].[moe](G)[sp].[moe]([m5C])[sp].[moe](T)[sp].[moe](G)}$$$$ (last 3' nucleoside missing) | 3 score 0-7
RNA1{[moe](T)[sp].[moe](T)p.[moe]([m5C])[sp].[moe](A)[sp].[moe]([m5C])[sp].[moe](T)[sp].[moe](T)[sp].[moe](T)[sp].[moe]([m5C])[sp].[moe](A)[sp].[moe](T)[sp].[moe](A)[sp].[moe](A)[sp].[moe](T)[sp].[moe](G)[sp].[moe]([m5C])p.[moe](T)[sp].[moe](G)}$$$$ (last 3' nucleoside missing) | 1 score 0-7
RNA1{[moe](T)[sp].[moe](T)p.[moe]([m5C])[sp].[moe](A)[sp].[moe]([m5C])[sp].[moe](T)[sp].[moe](T)[sp].[moe](T)[sp].[moe]([m5C])p.[moe](A)[sp].[moe](T)[sp].[moe](A)[sp].[moe](A)[sp].[moe](T)[sp].[moe](G)[sp].[moe]([m5C])[sp].[moe](T)[sp].[moe](G)}$$$$ (last 3' nucleoside missing) | 2.5 score 0-7
RNA1{[moe](T)[sp].[moe](T)p.[moe]([m5C])[sp].[moe](A)p.[moe]([m5C])[sp].[moe](T)[sp].[moe](T)[sp].[moe](T)[sp].[moe]([m5C])[sp].[moe](A)[sp].[moe](T)[sp].[moe](A)[sp].[moe](A)[sp].[moe](T)[sp].[moe](G)[sp].[moe]([m5C])[sp].[moe](T)[sp].[moe](G)}$$$$ (last 3' nucleoside missing) | 2.25 score 0-7
